Assay results as given in patent US20240041765A1, “ORAL LIQUID SUSPENSION OF PAN-RAF KINASE INHIBITOR” (DAY ONE BIOPHARMACEUTICALS, INC., priority 2022, published 2024).

Assay: Single oral dose mouse PK in male CD-1 mice
Assay type: in vivo
Conditions: plasma, single oral dose 50 mg/kg, Mean ± SD, n = 3, vehicle: Group 1 100% PEG400, Groups 2-3 DI water, Group 4 0.5% methylcellulose in water (w/v)
Protocol: Amorphous solid dispersions of Compound A in aqueous suspension formulations were administered via oral gavage in male CD-1 mice to assess Compound A plasma exposure. Pharmacokinetics (PK) of Compound A crystalline drug substance dissolved in organic solvent (PEG400) were used to generate a solution formulation—also included as the comparator group in this study. The concentrations of Compound A in mouse plasma were quantified with a qualified LC-MS/MS method.
Each oral dosing group consisted of 3 male CD-1 mice. At dosing, the animals weighted between 0.0297 to 0.0376 kg. Animals were not fasted prior to oral administration in this study. Compound A drug substances in corresponding dosing vehicles were administered by oral route using polypropylene gavage tube to CD-1 mice. Serial blood samples were collected at 0.25, 0.50, 1, 4, 8 and 24 hours post-dose. Serial blood samples were collected from a tail vein or another approved method at 0.25, 0.50, 1, 4, 8 hours post-dose. Terminal blood collection were collected via cardiac puncture at 24 hours post-dose.
Blood samples were collected into K2EDTA tubes according to in-life study protocol and immediately placed on wet ice and then centrifuged for 10 minutes at 3500 rpm for plasma preparation. All plasma samples were placed in 96-well strip-tube rack and stored in freezer until plasma analysis. Immediately following terminal blood collection, the brain tissue was collected for each animal. Each tissue was collected into pre-weighed tube and the weight of the tissue sample was determined. Samples were flash frozen and kept on dry ice until stored at −70° C. prior to sample processing and analysis. Table 27 provides the study design for the oral administration of Compound A in mice and summary of mouse PK parameters.
Non compartmental pharmacokinetic (NCA) analysis was performed on plasma concentration data using WinNonlin module in the Phoenix Platform (version 8.3.1 or above, Certara Inc., Princeton, NJ 08540). Calculations were performed using nominal sampling times in the pharmacokinetic analysis. All pharmacokinetic parameters and summary statistics are reported to 3 significant digits except for Tmax, which is reported to 2 decimal places. • Cmax: Observed peak blood/plasma concentration • Tmax: Time to reach observed peak blood/plasma concentration • kel: Elimination rate constant determined by linear regression analysis of selected time points in the apparent terminal phase of the log plasma concentration vs. time curve (not reported) • t1/2: Apparent terminal half-life calculated as ln(2)/kel • MRT: Mean time a drug molecule resides in body • AUC0-last: Area under the plasma concentration vs. time curve from 0 to the last quantifiable concentration calculated by the linear trapezoidal method • AUC0-inf: Area under the plasma concentration vs. time curve from 0 h to infinity, calculated as AUC0-last+Clast/kel

AUC0-inf: 407 ± 20.4 µg·h/mL | AUC0-last: 300 ± 24.7 µg·h/mL | Cmax: 18.3 ± 1.51 µg/mL | MRTlast: 9.42 ± 0.573 h | Tmax: 8.00 ± 0.00 h | t1/2: 12.7 ± 2.30 h
Structure (SMILES): C[C@@H](NC(=O)c1ncnc(N)c1Cl)c1ncc(C(=O)Nc2cc(C(F)(F)F)c(Cl)cn2)s1 [DAY 101 API]
